Source: US20230102520A1, “INHIBITORS OF LOW MOLECULAR WEIGHT PROTEIN TYROSINE PHOSPHATASE (LMPTP) AND USES THEREOF” (Sanford Burnham Prebys Medical Discovery Institute, priority 2019, published 2023)
pIC50: −log10 of the molar value.

Molecular target: T1, human LMPTP-A (Homo sapiens, UniProt P24666)
T1 sequence (P24666 1-158): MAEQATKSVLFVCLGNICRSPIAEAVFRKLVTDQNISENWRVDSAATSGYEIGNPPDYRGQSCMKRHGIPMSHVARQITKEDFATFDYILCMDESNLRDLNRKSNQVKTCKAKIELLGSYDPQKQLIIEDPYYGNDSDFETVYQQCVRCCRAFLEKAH
Assay: Enzyme Assay of Inhibition of LMPTP-A
Assay type: biochemical
Conditions: phosphatase assay, OMFP or pNPP substrate, 50 mM Bis-Tris pH 6.0, 37° C.
Experimental: Example B-1: Enzyme Assay of Inhibition of LMPTP-A
Phosphatase assays were performed in buffer containing 50 mM Bis-Tris, pH 6.0, 1 mM DTT and 0.01% Triton X-100 at 37° C. For assays conducted with 3-O-methylfluorescein phosphate (OMFP) as substrate, fluorescence was monitored continuously at λex=485 and λem=525 nm. For assays conducted with para-nitrophenylphosphate (pNPP) as substrate, the reaction was stopped by addition of 2× reaction volume of 1 M NaOH, and absorbance was measured at 405 nm. IC50 values of compounds disclosed herein were determined from plots of inhibitor concentration versus percentage of enzyme activity. For inhibitor selectivity assays, each PTP was incubated with either 0.4 mM OMFP or 5 mM pNPP in the presence of 40 μM compound or DMSO. […] For the inhibitor reversibility assay, 50 nM human LMPTP-A was pre-incubated with 10 μM of compound disclosed herein or DMSO for 5 min. The enzyme was diluted 100× in phosphatase assay buffer containing 0.4 mM OMFP and fluorescence was measured at the indicated time points.

| Compound | pIC50 |
| --- | --- |
| Cc1ccccc1-c1nc2c(N)nc(C)n(Cc3c(Cl)ccnc3Cl)c-2n1 [3-[(2,4-dichloro(3-pyridyl))methyl]-2-methyl-8-(2-methylphenyl)-3-hydropurine-6-ylamine] | 4.70 to 6.00 |
| Cc1nc(C)c(Cn2cnc(N)c3nc(-c4ccccc4C)nc2-3)s1 [3-[(2,4-dimethyl(1,3-thiazol-5-yl))methyl]-8-(2-methylphenyl)-3-hydropurine-6-ylamine] | > 6.00 |
| Cc1ccccc1-c1nc2c(N)ncn(Cc3c(C)ccnc3C)c-2n1 [3-[(2,4-dimethyl(3-pyridyl))methyl]-8-(2-methylphenyl)-3-hydropurine-6-ylamine] | > 6.00 |
| Cc1ccnc(C)c1Cn1cnc(N)c2nc(-c3ccccc3)nc1-2 [3-[(2,4-dimethyl(3-pyridyl))methyl]-8-phenyl-3-hydropurine-6-ylamine] | > 6.00 |
| Cc1ccccc1-c1nc2c(N)ncn(Cc3c(Cl)nc(N)nc3Cl)c-2n1 [3-[(2-amino-4,6-dichloropyrimidin-5-yl)methyl]-8-(2-methylphenyl)-3-hydropurine-6-ylamine] | > 6.00 |
| Cc1ccccc1-c1nc2c(N)ncn(Cc3cccnc3C)c-2n1 [3-[(2-methyl(3-pyridyl))methyl]-8-(2-methylphenyl)-3-hydropurine-6-ylamine] | > 6.00 |
| Cc1ccccc1-c1nc2c(N)nc(C)n(Cc3c(Br)cncc3Br)c-2n1 [3-[(3,5-dibromo(4-pyridyl))methyl]-2-methyl-8-(2-methylphenyl)-3-hydropurine-6-ylamine] | 4.70 to 6.00 |
| Nc1ncn(Cc2c(Br)cncc2Br)c2nc(-c3ccc4c(c3)CCCC4)nc1-2 [3-[(3,5-dibromo(4-pyridyl))methyl]-8-(2-5,6,7,8-tetrahydronaphthyl)-3-hydropurine-6-ylamine] | > 6.00 |
| Cc1ccccc1-c1nc2c(N)ncn(Cc3c(Br)cncc3Br)c-2n1 [3-[(3,5-dibromo(4-pyridyl))methyl]-8-(2-methylphenyl)-3-hydropurine-6-ylamine] | > 6.00 |
| Nc1ncn(Cc2c(Br)cncc2Br)c2nc(-c3cccc4c3CCCC4)nc1-2 [3-[(3,5-dibromo(4-pyridyl))methyl]-8-(5,6,7,8-tetrahydronaphthyl)-3-hydropurine-6-ylamine] | < 4.70 |
| Nc1ncn(Cc2c(Br)cncc2Br)c2nc(-c3cnn4ccccc34)nc1-2 [3-[(3,5-dibromo(4-pyridyl))methyl]-8-(8-hydropyrazolo[1,5-a]pyridin-3-yl)-3-hydropurine-6-ylamine] | > 6.00 |
| Nc1ncn(Cc2c(Br)cncc2Br)c2nc(-c3ccccc3)nc1-2 [3-[(3,5-dibromo(4-pyridyl))methyl]-8-phenyl-3-hydropurine-6-ylamine] | > 6.00 |
| Cc1ccccc1-c1nc2c(N)nc(C)n(Cc3c(Cl)cncc3Cl)c-2n1 [3-[(3,5-dichloro(4-pyridyl))methyl]-2-methyl-8-(2-methylphenyl)-3-hydropurine-6-ylamine] | 4.70 to 6.00 |
| Cc1cc(-c2nc3c(N)ncn(Cc4c(Cl)cncc4Cl)c-3n2)n(C)n1 [3-[(3,5-dichloro(4-pyridyl))methyl]-8-(1,3-dimethylpyrazol-5-yl)-3-hydropurine-6-ylamine] | > 6.00 |
| Cn1cnc2cc(-c3nc4c(N)ncn(Cc5c(Cl)cncc5Cl)c-4n3)ccc21 [3-[(3,5-dichloro(4-pyridyl))methyl]-8-(1-methylbenzimidazol-5-yl)-3-hydropurine-6-ylamine] | > 6.00 |
| Cn1cnc2ccc(-c3nc4c(N)ncn(Cc5c(Cl)cncc5Cl)c-4n3)cc21 [3-[(3,5-dichloro(4-pyridyl))methyl]-8-(1-methylbenzimidazol-6-yl)-3-hydropurine-6-ylamine] | > 6.00 |
| Nc1ncn(Cc2c(Cl)cncc2Cl)c2nc(-c3cc(F)ccc3F)nc1-2 [3-[(3,5-dichloro(4-pyridyl))methyl]-8-(2,5-difluorophenyl)-3-hydropurine-6-ylamine] | > 6.00 |
| Nc1ncn(Cc2c(Cl)cncc2Cl)c2nc(-c3cccc4c3CCCC4)nc1-2 [3-[(3,5-dichloro(4-pyridyl))methyl]-8-(5,6,7,8-tetrahydronaphthyl)-3-hydropurine-6-ylamine] | < 4.70 |
| Nc1ncn(Cc2c(Cl)cncc2Cl)c2nc(-c3cnn4ccccc34)nc1-2 [3-[(3,5-dichloro(4-pyridyl))methyl]-8-(8-hydropyrazolo[1,5-a]pyridin-3-yl)-3-hydropurine-6-ylamine] | > 6.00 |
| Nc1ncn(Cc2c(Cl)cncc2Cl)c2nc(-c3ccn4nccc4c3)nc1-2 [3-[(3,5-dichloro(4-pyridyl))methyl]-8-(8-hydropyrazolo[1,5-a]pyridin-5-yl)-3-hydropurine-6-ylamine] | > 6.00 |
| Nc1ncn(Cc2c(Cl)cncc2Cl)c2nc(-c3cnccc3C(F)(F)F)nc1-2 [3-[(3,5-dichloro(4-pyridyl))methyl]-8-[4-(trifluoromethyl)(3-pyridyl)]-3-hydropurine-6-ylamine] | > 6.00 |
| Nc1ncn(Cc2c(Cl)cncc2Cl)c2nc(Cc3ccc(F)cc3)nc1-2 [3-[(3,5-dichloro(4-pyridyl))methyl]-8-[(4-fluorophenyl)methyl]-3-hydropurine-6-ylamine] | > 6.00 |
| COc1cncc(OC)c1Cn1cnc(N)c2nc(-c3ccccc3C)nc1-2 [3-[(3,5-dimethoxy(4-pyridyl))methyl]-8-(2-methylphenyl)-3-hydropurine-6-ylamine] | > 6.00 |

The remaining lines, values ahead:

| pIC50 | Compound |
| --- | --- |
| > 6.00 | 3-[(3,5-dichloro(4-pyridyl))methyl]-8-(2-5,6,7,8-tetrahydronaphthyl)-3-hydropurine-6-ylamine |
| > 6.00 | 3-[(3,5-diiodo(4-pyridyl))methyl]-8-(2-methylphenyl)-3-hydropurine-6-ylamine |
| > 6.00 | 3-[(4-iodo-2-methoxy(3-pyridyl))methyl]-8-(2-methylphenyl)-3-hydropurine-6-ylamine |
| > 6.00 | Cc1cc(-c2nc3c(N)ncn(Cc4c(Cl)ccnc4Cl)c-3n2)n(C)n1 [3-[(2,4-dichloro(3-pyridyl))methyl]-8-(1,3-dimethylpyrazol-5-yl)-3-hydropurine-6-ylamine] |
| > 6.00 | Nc1ncn(Cc2c(Cl)ccnc2Cl)c2nc(-c3cc(F)ccc3F)nc1-2 [3-[(2,4-dichloro(3-pyridyl))methyl]-8-(2,5-difluorophenyl)-3-hydropurine-6-ylamine] |
| > 6.00 | Nc1ncn(Cc2c(Cl)ccnc2Cl)c2nc(-c3ccc4c(c3)CCCC4)nc1-2 [3-[(2,4-dichloro(3-pyridyl))methyl]-8-(2-5,6,7,8-tetrahydronaphthyl)-3-hydropurine-6-ylamine] |
| > 6.00 | Cc1ccccc1-c1nc2c(N)ncn(Cc3c(Cl)ccnc3Cl)c-2n1 [3-[(2,4-dichloro(3-pyridyl))methyl]-8-(2-methylphenyl)-3-hydropurine-6-ylamine] |
| > 6.00 | Nc1ncn(Cc2c(Cl)ccnc2Cl)c2nc(Cc3ccc(F)cc3)nc1-2 [3-[(2,4-dichloro(3-pyridyl))methyl]-8-[(4-fluorophenyl)methyl]-3-hydropurine-6-ylamine] |
| > 6.00 | Nc1ncn(Cc2c(Cl)ccnc2Cl)c2nc(-c3ccccc3)nc1-2 [3-[(2,4-dichloro(3-pyridyl))methyl]-8-phenyl-3-hydropurine-6-ylamine] |
| > 6.00 | COc1ccnc(OC)c1Cn1cnc(N)c2nc(-c3ccccc3C)nc1-2 [3-[(2,4-dimethoxy(3-pyridyl))methyl]-8-(2-methylphenyl)-3-hydropurine-6-ylamine] |
